Results published in ChEMBL document CHEMBL1201862, “PubChem BioAssay data set” (2004).
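Five compound concentrations were applied to cells in 96-well plates for 48 hours; endpoints were derived by simple linear interpolation of the resulting dose-response curve. GI50 = concentration required for 50% inhibition of growth.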 The source made the active and inactive calls. Cut-off read from the data, not from the text of the source: active = GI50 up to about 1.1 µM and inactive = higher.

How the values were obtained:
Experiment in all cases: NCI anticancer screen, dose series, 48 h
786-0 = system: 786-0
CAKI-1 = system: CAKI-1
CCRF-CEM = system: CCRF-CEM
M14 = system: M14
MCF7 = system: MCF7
MDA-MB-231 = system: MDA-MB-231
NCI/ADR-RES = system: NCI/ADR-RES
RPMI-8226 = system: RPMI-8226
RXF 393 = system: RXF 393
SF-295 = system: SF-295
SK-MEL-2 = system: SK-MEL-2
SK-MEL-5 = system: SK-MEL-5
SNB-19 = system: SNB-19
SNB-75 = system: SNB-75
SR = system: SR
SW-620 = system: SW-620
TK-10 = system: TK-10
U-251 = system: U-251
UO-31 = system: UO-31
HL-60 = system: HL-60

Measured: GI50

CC(=O)O[C@@H]1C2=C(C)C=C(O2)[C@H]2O[C@]2(C)C[C@H]2C=C(C(=O)O2)[C@H](OC(C)=O)CC1[C@@]1(C)CO1 (some centres undefined)
inactive: 786-0 23.9 µM | CAKI-1 24.2 µM | CCRF-CEM 8.59 µM | M14 23.8 µM | MCF7 18 µM | MDA-MB-231 27.4 µM | NCI/ADR-RES 29.4 µM | RPMI-8226 13.9 µM | RXF 393 17.2 µM | SF-295 36.1 µM | SK-MEL-2 56.1 µM | SK-MEL-5 35.7 µM | SNB-19 > 100 µM | SNB-75 42.5 µM | SR 18.7 µM | SW-620 12.8 µM | TK-10 60.3 µM | U-251 19.1 µM | UO-31 20.1 µM

CCCCn1cnc2c(SC)ncnc21
inactive: 786-0 > 100 µM | CAKI-1 > 100 µM | M14 > 100 µM | MCF7 > 100 µM | MDA-MB-231 > 100 µM | NCI/ADR-RES > 100 µM | RPMI-8226 > 100 µM | RXF 393 > 100 µM | SF-295 > 100 µM | SK-MEL-2 > 100 µM | SK-MEL-5 > 100 µM | SNB-19 > 100 µM | SNB-75 > 100 µM | SR 3.45 µM | SW-620 > 100 µM | TK-10 > 100 µM | U-251 > 100 µM | UO-31 > 100 µM

CC(=O)Oc1ccc(/C=C/C(=O)NCC(NC(=O)/C=C/c2ccc(OC(C)=O)c(OC(C)=O)c2)C(=O)O)cc1OC(C)=O (centres undefined)
inactive: 786-0 > 100 µM | CAKI-1 > 100 µM | CCRF-CEM 32 µM | M14 > 100 µM | MCF7 > 100 µM | MDA-MB-231 > 100 µM | NCI/ADR-RES > 100 µM | RPMI-8226 > 100 µM | RXF 393 > 100 µM | SF-295 > 100 µM | SK-MEL-2 > 100 µM | SK-MEL-5 > 100 µM | SNB-19 > 100 µM | SR 33.4 µM | SW-620 > 100 µM | TK-10 > 100 µM | U-251 > 100 µM | UO-31 > 100 µM

O=C1/C(=C2\Sc3c(ccc(Cl)c3Cl)C2=O)Sc2c1ccc(Cl)c2Cl
inactive: 786-0 > 100 µM | CAKI-1 > 100 µM | CCRF-CEM > 100 µM | M14 > 100 µM | MCF7 > 100 µM | MDA-MB-231 > 100 µM | NCI/ADR-RES > 100 µM | RPMI-8226 > 100 µM | RXF 393 89.1 µM | SF-295 33.1 µM | SK-MEL-2 > 100 µM | SK-MEL-5 > 100 µM | SNB-19 > 100 µM | SNB-75 20.3 µM | SR > 100 µM | SW-620 > 100 µM | TK-10 > 100 µM | U-251 > 100 µM | UO-31 > 100 µM

COC(=O)c1cc(CC2Cc3cc4c(cc3C2=O)CCC4)cc2c1CCC2 (centres undefined)
inactive: 786-0 55.2 µM | CAKI-1 64.6 µM | CCRF-CEM > 100 µM | HL-60 > 100 µM | M14 52.1 µM | MCF7 45.8 µM | MDA-MB-231 > 100 µM | NCI/ADR-RES 81.5 µM | RPMI-8226 > 100 µM | SF-295 35.1 µM | SK-MEL-2 63.7 µM | SNB-19 > 100 µM | SNB-75 31.3 µM | SR > 100 µM | SW-620 > 100 µM | TK-10 > 100 µM | U-251 > 100 µM | UO-31 > 100 µM

Clc1ccccc1-c1nn2c(CCCCCCCCc3nnc4sc(-c5ccccc5Cl)nn34)nnc2s1
inactive: 786-0 > 100 µM | CAKI-1 > 100 µM | CCRF-CEM 61.7 µM | M14 > 100 µM | MCF7 52.2 µM | MDA-MB-231 87.7 µM | NCI/ADR-RES > 100 µM | RPMI-8226 54 µM | RXF 393 > 100 µM | SF-295 > 100 µM | SK-MEL-2 > 100 µM | SK-MEL-5 63.1 µM | SNB-19 > 100 µM | SNB-75 > 100 µM | SR > 100 µM | SW-620 > 100 µM | TK-10 > 100 µM | U-251 > 100 µM | UO-31 > 100 µM

CCSC1=CC2(O)N(CCc3ccc(OC)c(OC)c3)C(=O)CC2(C(=O)OC)CC1=O (centres undefined)
inactive: 786-0 19.3 µM | CAKI-1 70.5 µM | CCRF-CEM 34 µM | HL-60 32.7 µM | M14 25.8 µM | MCF7 19.7 µM | MDA-MB-231 18.3 µM | NCI/ADR-RES 65.9 µM | RPMI-8226 29.4 µM | SF-295 > 100 µM | SK-MEL-2 21.1 µM | SK-MEL-5 41.2 µM | SNB-19 92.9 µM | SR 19.6 µM | SW-620 25.2 µM | TK-10 19.5 µM | U-251 23.4 µM | UO-31 18.5 µM

Cc1nc2ccc(S(=O)(=O)Nc3ccccc3)cc2c(=O)n1NC(=O)CNc1ccccc1
inactive: 786-0 > 100 µM | CAKI-1 > 100 µM | CCRF-CEM > 100 µM | HL-60 > 100 µM | M14 > 100 µM | MCF7 > 100 µM | MDA-MB-231 > 100 µM | NCI/ADR-RES > 100 µM | RPMI-8226 > 100 µM | SF-295 > 100 µM | SK-MEL-2 > 100 µM | SNB-19 > 100 µM | SNB-75 > 100 µM | SR > 100 µM | SW-620 > 100 µM | TK-10 > 100 µM | U-251 > 100 µM | UO-31 > 100 µM

CC(C)(C)OC(=O)NC(Cc1ccc(OC(C)(C)C)cc1)C(=O)N[C@H]1CCC[C@H]1C(=O)NC(Cc1ccccc1)C(=O)N1CCCC1C(N)=O (some centres undefined)
inactive: 786-0 > 100 µM | CAKI-1 > 100 µM | CCRF-CEM > 100 µM | M14 > 100 µM | MCF7 > 100 µM | MDA-MB-231 > 100 µM | NCI/ADR-RES > 100 µM | RPMI-8226 80.5 µM | RXF 393 > 100 µM | SF-295 > 100 µM | SK-MEL-2 > 100 µM | SK-MEL-5 > 100 µM | SNB-19 > 100 µM | SNB-75 > 100 µM | SR > 100 µM | SW-620 > 100 µM | TK-10 > 100 µM | U-251 > 100 µM | UO-31 > 100 µM

c1ccc2c[n+](Cc3ccnc4ccccc34)ccc2c1
inactive: 786-0 > 100 µM | CAKI-1 > 100 µM | CCRF-CEM > 100 µM | M14 > 100 µM | MCF7 > 100 µM | MDA-MB-231 > 100 µM | NCI/ADR-RES > 100 µM | RPMI-8226 > 100 µM | RXF 393 > 100 µM | SF-295 > 100 µM | SK-MEL-2 > 100 µM | SK-MEL-5 42.8 µM | SNB-19 > 100 µM | SR > 100 µM | SW-620 > 100 µM | TK-10 > 100 µM | U-251 > 100 µM | UO-31 > 100 µM
